{"source": "ChEMBL document CHEMBL1158934", "about": "“Anthelmintic polyfunctional nitrogen-containing terpenoids from marine sponges” (J Nat Prod, 1991)", "assay_type_in_all_cases": "functional, organism-based", "key": {"[1]": {"tested_on": "Nippostrongylus brasiliensis", "assay": "Antimicrobial activity against Nippostrongylus brasiliensis"}, "Staphylococcus aureus": {"tested_on": "Staphylococcus aureus", "assay": "Antimicrobial activity against Staphylococcus aureus"}, "Candida albicans": {"tested_on": "Candida albicans", "assay": "Antimicrobial activity against Candida albicans"}, "[2]": {"tested_on": "Trichophyton mentagrophytes", "assay": "Antimicrobial activity against Trichophyton mentagrophytes"}}, "note": "Calls of active or inactive are those of the source. The rule behind the calls is not given here."}
{"smiles": "CC1(C)O[C@@](C)([C@H]2CC[C@@](C)(N=C=S)[C@H]3CC[C@@](C)(O)[C@H](NC=O)[C@@H]32)CC[C@@H]1Cl", "values": [{"measurement": "Activity", "setting": "[1]", "value": "inactive"}]}
{"smiles": "[C-]#[N+][C@@H]1[C@H](C(C)C)CC[C@@H](C)[C@@]12C=C(C)CC2", "values": [{"measurement": "Activity", "setting": "[1]", "value": "inactive"}, {"measurement": "Activity", "setting": "Staphylococcus aureus", "value": "Active"}, {"measurement": "Activity", "setting": "Candida albicans", "value": "Active"}, {"measurement": "Activity", "setting": "[2]", "value": "Active"}]}
{"smiles": "[C-]#[N+][C@@H]1[C@H]2[C@H](CC[C@@]1(C)O)C(=C)CC[C@@H]2[C@@]1(C)CC[C@H](Cl)C(C)(C)O1", "values": [{"measurement": "Activity", "setting": "[1]", "value": "inactive"}]}
{"smiles": "[C-]#[N+][C@@H]1[C@H]2[C@H](CC[C@@]1(C)O)[C@](C)(N=C=S)CC[C@@H]2[C@@]1(C)CC[C@H](Cl)C(C)(C)O1", "values": [{"measurement": "Activity", "setting": "[1]", "value": "Active"}, {"measurement": "Activity", "setting": "Staphylococcus aureus", "value": "Active"}, {"measurement": "Activity", "setting": "Candida albicans", "value": "Active"}, {"measurement": "Activity", "setting": "[2]", "value": "Active"}]}
{"smiles": "CC1=C[C@H]2[C@@H](CC1)[C@@](C)(N=S)CC[C@H]2C(C)C", "values": [{"measurement": "Activity", "setting": "[1]", "value": "inactive"}]}
{"smiles": "CC1=CC2=C(C(C)C)CC[C@](C)(N=C=S)[C@@H]2CC1", "values": [{"measurement": "Activity", "setting": "[1]", "value": "inactive"}]}
{"smiles": "CC1=CC[C@@H](C(C)C)[C@H]2C[C@@](C)(N=C=S)CC[C@@H]12", "note": "(relative stereo)", "values": [{"measurement": "Activity", "setting": "[1]", "value": "inactive"}]}
